Source: US9822130B2, “Triazolo-pyrazinyl derivatives useful as soluble guanylate cyclase activators” (Merck Sharp & Dohme Corp., priority 2014, dated 2017)

molecular target: T1, sGC α1/β1 heterodimer stably expressed in CHO-K1 cell line (CHO-K1/sGC) (Homo sapiens, UniProt Q02108+Q02153); assay: Cell-based sGC Functional Assay (CASA Assay), cGMP generation; settings: CHO-K1/sGC cells, 1 hr at 37° C., cGMP by HTRF, 4P fit; presence or absence of 1 μM DETA-NO not given; read-out: IP (nM) (inflection point)
T1 construct: expressed in transfected cells
T1 sequence (Q02108 1-690): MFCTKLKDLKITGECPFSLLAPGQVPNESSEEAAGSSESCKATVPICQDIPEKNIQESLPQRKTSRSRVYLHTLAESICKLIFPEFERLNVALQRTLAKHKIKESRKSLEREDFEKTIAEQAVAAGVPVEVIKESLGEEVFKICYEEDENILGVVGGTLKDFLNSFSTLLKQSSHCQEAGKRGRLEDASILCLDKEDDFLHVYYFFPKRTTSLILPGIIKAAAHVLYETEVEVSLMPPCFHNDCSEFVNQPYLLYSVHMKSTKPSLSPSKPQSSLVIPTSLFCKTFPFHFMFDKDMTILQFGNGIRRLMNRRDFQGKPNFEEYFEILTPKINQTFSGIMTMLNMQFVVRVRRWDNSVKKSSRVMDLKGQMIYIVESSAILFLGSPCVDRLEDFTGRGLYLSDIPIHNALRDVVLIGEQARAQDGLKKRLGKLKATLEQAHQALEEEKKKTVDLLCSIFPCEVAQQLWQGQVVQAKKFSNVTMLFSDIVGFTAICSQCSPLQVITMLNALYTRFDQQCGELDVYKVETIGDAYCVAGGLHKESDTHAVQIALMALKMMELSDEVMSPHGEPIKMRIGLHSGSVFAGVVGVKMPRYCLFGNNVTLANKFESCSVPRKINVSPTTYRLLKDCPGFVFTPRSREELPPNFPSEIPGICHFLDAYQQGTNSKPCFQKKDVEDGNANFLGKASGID
T1 sequence (Q02153 1-619): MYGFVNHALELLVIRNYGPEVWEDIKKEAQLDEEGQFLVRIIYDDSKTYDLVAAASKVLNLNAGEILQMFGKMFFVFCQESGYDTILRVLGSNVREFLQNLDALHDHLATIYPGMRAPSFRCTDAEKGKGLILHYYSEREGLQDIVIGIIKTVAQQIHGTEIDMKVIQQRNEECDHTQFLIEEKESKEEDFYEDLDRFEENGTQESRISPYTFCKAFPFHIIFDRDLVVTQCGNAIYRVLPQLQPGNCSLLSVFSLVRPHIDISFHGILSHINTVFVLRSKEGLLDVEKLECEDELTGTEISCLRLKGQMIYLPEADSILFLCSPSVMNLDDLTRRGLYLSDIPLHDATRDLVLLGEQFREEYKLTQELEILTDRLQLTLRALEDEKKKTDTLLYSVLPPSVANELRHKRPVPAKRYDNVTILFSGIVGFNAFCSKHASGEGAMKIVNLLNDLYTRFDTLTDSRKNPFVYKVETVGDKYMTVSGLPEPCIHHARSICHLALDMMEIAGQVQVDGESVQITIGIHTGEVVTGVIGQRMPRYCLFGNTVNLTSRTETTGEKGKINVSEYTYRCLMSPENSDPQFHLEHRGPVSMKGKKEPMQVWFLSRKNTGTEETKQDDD
Procedure, shortened: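 Readout is HTRF cGMP in lysates, normalised to the maximal response of reference sGC activator Compound A (100%), with a 4P fit giving IP and fold induction. Cells were CHO-K1/sGC (human α1/β1) in EBSS buffer with IBMX, incubated 1 hr at 37° C with compound. Run with and without 1 μM DETA-NO; final DMSO 2.5%.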

SMILES	EC50
CC1(c2ccc(C(F)(F)F)cn2)C(=O)Nc2nc(-c3cn4ncnc4c(CCCC(F)(F)F)n3)nc(C(N)=O)c21 (stereo not drawn) [Example 179B, 5-methyl-6-oxo-2-(8-(4,4,4-trifluorobutyl)-[1,2,4]triazolo[1,5-a]pyrazin-6-yl)-5-(5-(trifluoromethyl)pyridin-2-yl)-6,7-dihydro-5H-pyrrolo[2,3-d] pyrimidine-4-carboxamide]	90.2 nM
Nc1nc(-c2cn3ncnc3c(CCCC(F)(F)F)n2)nc2c1C(c1ccc(F)c(F)c1)(C1CC1)C(=O)N2 (stereo not drawn) [Example 32A, 4-amino-5-cyclopropyl-5-(3,4-difluorophenyl)-2-(8-(4,4,4-trifluorobutyl)-[1,2,4]triazolo[1,5-a]pyrazin-6-yl)-5H-pyrrolo[2,3-d]pyrimidin-6(7H)-one]	77.4 nM
O=C1Nc2nc(-c3cn4ncnc4c(CCCC(F)(F)F)n3)nc(O)c2C1(c1ccc(F)cc1)C1CC1 (stereo not drawn) [Example 139B, 5-cyclopropyl-5-(4-fluorophenyl)-4-hydroxy-2-(8-(4,4,4-trifluorobutyl)-[1,2,4]triazolo[1,5-a]pyrazin-6-yl)-5H-pyrrolo[2,3-d]pyrimidin-6(7H)-one]	673 nM
CC1(c2nnc(C3CC3)o2)C(=O)Nc2nc(-c3cn4ncnc4c(CCC(F)(F)C(F)(F)F)n3)nc(N)c21 (stereo not drawn) [Example 98B, 4-amino-5-(5-cyclopropyl-1,3,4-oxadiazol-2-yl)-5-methyl-2-(8-(3,3,4,4,4-pentafluorobutyl)-[1,2,4]triazolo[1,5-a]pyrazin-6-yl)-5H-pyrrolo[2,3-d]pyrimidin-6(7H)-one]	86.1 nM
Cc1nc2c(CCC(F)(F)C(F)(F)F)nc(-c3nc(O)c4c(n3)NC(=O)[C@@]4(C)c3ccc(F)cc3)cn2n1 [Example 133B, (S)-5-(4-fluorophenyl)-4-hydroxy-5-methyl-2-(2-methyl-8-(3,3,4,4,4-pentafluorobutyl)-[1,2,4]triazolo[1,5-a]pyrazin-6-yl)-5H-pyrrolo[2,3-d]pyrimidin-6(7H)-one]	856 nM
CCCCc1nc(-c2nc(O)c3c(n2)NC(=O)C3(C)c2ccc(Cl)cc2)cn2ncnc12 (stereo not drawn) [Example 157A, 2-(8-butyl-[1,2,4]triazolo[1,5-a]pyrazin-6-yl)-5-(4-chlorophenyl)-4-hydroxy-5-methyl-5H-pyrrolo[2,3-d]pyrimidin-6(7H)-one]	72.7 nM
CC1(c2ccc(F)cn2)C(=O)Nc2nc(-c3cn4ncnc4c(CCCC(F)(F)F)n3)nc(O)c21 (stereo not drawn) [Example 136B, 5-(5-fluoropyridin-2-yl)-4-hydroxy-5-methyl-2-(8-(4,4,4-trifluorobutyl)-[1,2,4]triazolo[1,5-a]pyrazin-6-yl)-5H-pyrrolo[2,3-d]pyrimidin-6(7H)-one]	514 nM
C[C@@]1(c2ccc(F)cc2)C(=O)Nc2nc(-c3cn4ncnc4c(CCC(F)(F)C(F)(F)F)n3)ncc21 [Example 172A, (S)-5-(4-fluorophenyl)-5-methyl-2-(8-(3,3,4,4,4-pentafluorobutyl)-[1,2,4]triazolo[1,5-a]pyrazin-6-yl)-5,7-dihydro-6H-pyrrolo[2,3-d]pyrimidin-6-one]	212 nM
CCCc1nc(-c2nc(N)c3c(n2)NC(=O)C3(C)c2ccc(Cl)cc2)cn2nc(C)nc12 (stereo not drawn) [Example 93A, 4-amino-5-(4-chlorophenyl)-5-methyl-2-(2-methyl-8-propyl-[1,2,4]triazolo[1,5-a]pyrazin-6-yl)-5H-pyrrolo[2,3-d]pyrimidin-6(7H)-one]	439 nM
C[C@@]1(c2ccc(F)cc2)C(=O)Nc2nc(-c3cn4ncnc4c(CCC(F)(F)F)n3)nc(N)c21 [Example 74A, (S)-4-amino-5-(4-fluorophenyl)-5-methyl-2-(8-(3,3,3-trifluoropropyl)-[1,2,4]triazolo[1,5-a]pyrazin-6-yl)-5,7-dihydro-6H-pyrrolo[2,3-d]pyrimidin-6-one]	55.6 nM
Nc1nc(-c2cn3ncnc3c(CCCC(F)(F)F)n2)nc2c1C(c1ncc(C(F)(F)F)cn1)(C1CC1)C(=O)N2 (single isomer, unassigned) [Example 180B, 4-amino-5-cyclopropyl-2-(8-(4,4,4-trifluorobutyl)-[1,2,4]triazolo[1,5-a]pyrazin-6-yl)-5-(5-(trifluoromethyl)pyrimidin-2-yl)-5,7-dihydro-6H-pyrrolo[2,3-d]pyrimidin-6-one]	488 nM
Nc1nc(-c2cn3ncnc3c(CCCC(F)(F)F)n2)nc2c1C(c1ccc(F)cn1)(C1CC1)C(=O)N2 (stereo not drawn) [Example 34A, 4-amino-5-cyclopropyl-5-(5-fluoropyridin-2-yl)-2-(8-(4,4,4-trifluorobutyl)-[1,2,4]triazolo[1,5-a]pyrazin-6-yl)-5H-pyrrolo[2,3-d]pyrimidin-6(7H)-one]	428 nM

Compounds with a lower EC50, results first:

EC50	SMILES
47.5 nM	CC1(c2nnc(C3CC3)o2)C(=O)Nc2nc(-c3cn4ncnc4c(CCCC(F)(F)F)n3)nc(N)c21 (stereo not drawn) [Example 99A, 4-amino-5-(5-cyclopropyl-1,3,4-oxadiazol-2-yl)-5-methyl-2-(8-(4,4,4-trifluorobutyl)-[1,2,4]triazolo[1,5-a]pyrazin-6-yl)-5H-pyrrolo[2,3-d]pyrimidin-6(7H)-one]
40.4 nM	CC1(c2ccc(Cl)cn2)C(=O)Nc2nc(-c3cn4ncnc4c(CCC(F)(F)C(F)(F)F)n3)nc(N)c21 (stereo not drawn) [Example 3A, 4-amino-5-(5-chloropyridin-2-yl)-5-methyl-2-(8-(3,3,4,4,4-pentafluorobutyl)-[1,2,4]triazolo[1,5-a]pyrazin-6-yl)-5H-pyrrolo[2,3-d]pyrimidin-6(7H)-one]
36.7 nM	Nc1nc(-c2cn3ncnc3c(CCCC(F)(F)F)n2)nc2c1C(c1ccc(F)cc1)(C1CC1)C(=O)N2 (stereo not drawn) [Example 30B, 4-amino-5-cyclopropyl-5-(4-fluorophenyl)-2-(8-(4,4,4-trifluorobutyl)-[1,2,4]triazolo[1,5-a]pyrazin-6-yl)-5H-pyrrolo[2,3-d]pyrimidin-6(7H)-one]
22.6 nM	CCCCc1nc(-c2nc(N)c3c(n2)NC(=O)[C@@]3(C)c2ccc(F)cc2)cn2ncnc12 [Example 60A, (S)-4-amino-2-(8-butyl-[1,2,4]triazolo[1,5-a]pyrazin-6-yl)-5-(4-fluorophenyl)-5-methyl-5,7-dihydro-6H-pyrrolo[2,3-d]pyrimidin-6-one]
20.1 nM	COc1ccc(C2(C3CC3)C(=O)Nc3nc(-c4cn5ncnc5c(CCCC(F)(F)F)n4)nc(N)c32)nc1 (stereo not drawn) [Example 39A, 4-amino-5-cyclopropyl-5-(5-methoxypyridin-2-yl)-2-(8-(4,4,4-trifluorobutyl)-[1,2,4]triazolo[1,5-a]pyrazin-6-yl)-5H-pyrrolo[2,3-d]pyrimidin-6(7H)-one]
15.5 nM	Nc1nc(-c2cn3ncnc3c(CCCC(F)(F)F)n2)nc2c1C(c1nnc(C(F)(F)F)o1)(C1CC1)C(=O)N2 (stereo not drawn) [Example 106A, 4-amino-5-cyclopropyl-2-(8-(4,4,4-trifluorobutyl)-[1,2,4]triazolo[1,5-a]pyrazin-6-yl)-5-(5-(trifluoromethyl)-1,3,4-oxadiazol-2-yl)-5H-pyrrolo[2,3-d]pyrimidin-6(7H)-one]
13 nM	Nc1nc(-c2cn3ncnc3c(CCCC(F)(F)F)n2)nc2c1C(c1ccc(Cl)cc1)(C1CC1)C(=O)N2 (stereo not drawn) [Example 31B, 4-amino-5-(4-chlorophenyl)-5-cyclopropyl-2-(8-(4,4,4-trifluorobutyl)-[1,2,4]triazolo[1,5-a]pyrazin-6-yl)-5H-pyrrolo[2,3-d]pyrimidin-6(7H)-one]
7.3 nM	CC1(c2nnc(C3(F)CC3)o2)C(=O)Nc2nc(-c3cn4ncnc4c(CCCC(F)(F)F)n3)nc(N)c21 (stereo not drawn) [Example 109A, 4-amino-5-(5-(1-fluorocyclopropyl)-1,3,4-oxadiazol-2-yl)-5-methyl-2-(8-(4,4,4-trifluorobutyl)-[1,2,4]triazolo[1,5a]pyrazin-6-yl)-5H-pyrrolo[2,3-d] pyrimidin-6(7H)-one]
2.6 nM	CCCCc1nc(-c2nc(N)c3c(n2)NC(=O)C3(c2ccc(F)c(F)c2)C2CC2)cn2ncnc12 (stereo not drawn) [Example 65A, 4-amino-2-(8-butyl-[1,2,4]triazolo[1,5-a]pyrazin-6-yl)-5-cyclopropyl-5-(3,4-difluorophenyl)-5H-pyrrolo[2,3-d]pyrimidin-6(7H)-one]
